The NIST ThermoML archive (doi:10.1021/je060137q)
± gives the expanded uncertainty stated by the source.

Legend:
[1] = xn = mol fraction of the nth substance listed; settings: for surface tension liquid-gas: Pendant drop shape; for mass density: 101 kPa, Liquid
[2] = 101 kPa, Liquid

## Cc1cc(C)cc(C)c1 [1,3,5-trimethylbenzene] + COC(=O)OC
[1]; 298.15 K, x2 = 0
  surface tension liquid-gas: 28.09 ± 0.31 mN/m
  mass density: 861.04 ± 0.46 kg/m3
[1]; 298.15 K, x2 = 0.1048
  surface tension liquid-gas: 27.91 ± 0.31 mN/m
  mass density: 872.95 ± 0.44 kg/m3
[1]; 298.15 K, x2 = 0.1998
  surface tension liquid-gas: 27.6 ± 0.3 mN/m
  mass density: 885.1 ± 0.42 kg/m3
[1]; 298.15 K, x2 = 0.3001
  surface tension liquid-gas: 27.43 ± 0.3 mN/m
  mass density: 899.28 ± 0.4 kg/m3
[1]; 298.15 K, x2 = 0.3999
  surface tension liquid-gas: 27.32 ± 0.3 mN/m
[1]; 298.15 K, x2 = 0.4999
  surface tension liquid-gas: 27.34 ± 0.3 mN/m
  mass density: 932.32 ± 0.36 kg/m3
[1]; 298.15 K, x2 = 0.054
  mass density: 867.08 ± 0.45 kg/m3
[1]; 298.15 K, x2 = 0.1518
  mass density: 878.8 ± 0.43 kg/m3
[1]; 298.15 K, x2 = 0.2491
  mass density: 891.85 ± 0.41 kg/m3
[1]; 298.15 K, x2 = 0.3496
  mass density: 906.77 ± 0.39 kg/m3
[1]; 298.15 K, x2 = 0.4001
  mass density: 914.84 ± 0.38 kg/m3
[1]; 298.15 K, x2 = 0.4499
  mass density: 923.32 ± 0.37 kg/m3
[1]; 298.15 K, x2 = 0.5508
  mass density: 942.03 ± 0.35 kg/m3
[1]; 298.15 K, x2 = 0.5977
  mass density: 951.57 ± 0.34 kg/m3
[1]; 298.15 K, x2 = 0.6488
  mass density: 962.47 ± 0.33 kg/m3
[1]; 298.15 K, x2 = 0.7
  mass density: 974.17 ± 0.32 kg/m3
[1]; 298.15 K, x2 = 0.7514
  mass density: 986.83 ± 0.3 kg/m3
[1]; 298.15 K, x2 = 0.7999
  mass density: 999.6 ± 0.29 kg/m3
[1]; 298.15 K, x2 = 0.85
  mass density: 1013.67 ± 0.3 kg/m3
[1]; 298.15 K, x2 = 0.8999
  mass density: 1028.84 ± 0.3 kg/m3
[1]; 298.15 K, x2 = 0.9499
  mass density: 1045.18 ± 0.31 kg/m3
[1]; 313.15 K, x2 = 0
  surface tension liquid-gas: 26.82 ± 0.3 mN/m
  mass density: 848.73 ± 0.47 kg/m3
[1]; 313.15 K, x2 = 0.1009
  surface tension liquid-gas: 26.42 ± 0.3 mN/m
[1]; 313.15 K, x2 = 0.1994
  surface tension liquid-gas: 26.04 ± 0.29 mN/m
[1]; 313.15 K, x2 = 0.2996
  surface tension liquid-gas: 25.8 ± 0.29 mN/m
[1]; 313.15 K, x2 = 0.4016
  surface tension liquid-gas: 25.63 ± 0.29 mN/m
[1]; 313.15 K, x2 = 0.5004
  surface tension liquid-gas: 25.55 ± 0.28 mN/m
[1]; 313.15 K, x2 = 0.0505
  mass density: 854.19 ± 0.46 kg/m3
[1]; 313.15 K, x2 = 0.1046
  mass density: 860.31 ± 0.45 kg/m3
[1]; 313.15 K, x2 = 0.15
  mass density: 865.69 ± 0.44 kg/m3
[1]; 313.15 K, x2 = 0.2007
  mass density: 872.13 ± 0.43 kg/m3
[1]; 313.15 K, x2 = 0.2489
  mass density: 878.45 ± 0.42 kg/m3
[1]; 313.15 K, x2 = 0.2985
  mass density: 885.42 ± 0.41 kg/m3
[1]; 313.15 K, x2 = 0.35
  mass density: 892.95 ± 0.4 kg/m3
[1]; 313.15 K, x2 = 0.3983
  mass density: 900.54 ± 0.39 kg/m3
[1]; 313.15 K, x2 = 0.4498
  mass density: 908.93 ± 0.38 kg/m3
[1]; 313.15 K, x2 = 0.5001
  mass density: 917.76 ± 0.37 kg/m3
[1]; 313.15 K, x2 = 0.5492
  mass density: 926.76 ± 0.36 kg/m3
[1]; 313.15 K, x2 = 0.5999
  mass density: 936.76 ± 0.35 kg/m3
[1]; 313.15 K, x2 = 0.6488
  mass density: 946.86 ± 0.34 kg/m3
[1]; 313.15 K, x2 = 0.6992
  mass density: 958.18 ± 0.33 kg/m3
[1]; 313.15 K, x2 = 0.7489
  mass density: 969.98 ± 0.31 kg/m3
[1]; 313.15 K, x2 = 0.7995
  mass density: 982.91 ± 0.3 kg/m3
[1]; 313.15 K, x2 = 0.8479
  mass density: 996.11 ± 0.29 kg/m3
[1]; 313.15 K, x2 = 0.8997
  mass density: 1011.33 ± 0.29 kg/m3
[1]; 313.15 K, x2 = 0.9501
  mass density: 1027.37 ± 0.29 kg/m3

## COC(=O)OC [dimethyl carbonate]
[2]; 298.15 K
  mass density: 1062.97 ± 0.32 kg/m3
[2]; 313.15 K
  mass density: 1044.63 ± 0.3 kg/m3

## Cc1ccc(C)c(C)c1 [1,2,4-trimethylbenzene] + COC(=O)OC
[1]; 298.15 K, x2 = 0
  surface tension liquid-gas: 29.29 ± 0.33 mN/m
  mass density: 871.64 ± 0.48 kg/m3
[1]; 298.15 K, x2 = 0.0999
  surface tension liquid-gas: 28.93 ± 0.32 mN/m
  mass density: 882.55 ± 0.46 kg/m3
[1]; 298.15 K, x2 = 0.2
  surface tension liquid-gas: 28.64 ± 0.32 mN/m
  mass density: 894.76 ± 0.44 kg/m3
[1]; 298.15 K, x2 = 0.3001
  surface tension liquid-gas: 28.34 ± 0.31 mN/m
[1]; 298.15 K, x2 = 0.4001
  surface tension liquid-gas: 28.21 ± 0.31 mN/m
  mass density: 923.26 ± 0.39 kg/m3
[1]; 298.15 K, x2 = 0.5
  surface tension liquid-gas: 28.08 ± 0.31 mN/m
  mass density: 939.96 ± 0.38 kg/m3
[1]; 298.15 K, x2 = 0.0499
  mass density: 876.93 ± 0.47 kg/m3
[1]; 298.15 K, x2 = 0.15
  mass density: 888.53 ± 0.45 kg/m3
[1]; 298.15 K, x2 = 0.2498
  mass density: 901.22 ± 0.43 kg/m3
[1]; 298.15 K, x2 = 0.2995
  mass density: 908.07 ± 0.42 kg/m3
[1]; 298.15 K, x2 = 0.3502
  mass density: 915.53 ± 0.41 kg/m3
[1]; 298.15 K, x2 = 0.45
  mass density: 931.35 ± 0.39 kg/m3
[1]; 298.15 K, x2 = 0.55
  mass density: 949.04 ± 0.36 kg/m3
[1]; 298.15 K, x2 = 0.5998
  mass density: 958.57 ± 0.35 kg/m3
[1]; 298.15 K, x2 = 0.65
  mass density: 968.9 ± 0.34 kg/m3
[1]; 298.15 K, x2 = 0.6999
  mass density: 979.71 ± 0.33 kg/m3
[1]; 298.15 K, x2 = 0.7497
  mass density: 991.22 ± 0.31 kg/m3
[1]; 298.15 K, x2 = 0.7997
  mass density: 1003.68 ± 0.3 kg/m3
[1]; 298.15 K, x2 = 0.8501
  mass density: 1017.1 ± 0.3 kg/m3
[1]; 298.15 K, x2 = 0.8999
  mass density: 1031.25 ± 0.31 kg/m3
[1]; 298.15 K, x2 = 0.9498
  mass density: 1046.57 ± 0.31 kg/m3
[1]; 313.15 K, x2 = 0
  surface tension liquid-gas: 27.67 ± 0.31 mN/m
  mass density: 859.5 ± 0.49 kg/m3
[1]; 313.15 K, x2 = 0.1008
  surface tension liquid-gas: 27.23 ± 0.31 mN/m
[1]; 313.15 K, x2 = 0.1999
  surface tension liquid-gas: 26.82 ± 0.3 mN/m
[1]; 313.15 K, x2 = 0.2996
  surface tension liquid-gas: 26.51 ± 0.3 mN/m
[1]; 313.15 K, x2 = 0.3991
  surface tension liquid-gas: 26.29 ± 0.29 mN/m
[1]; 313.15 K, x2 = 0.5
  surface tension liquid-gas: 26.11 ± 0.29 mN/m
[1]; 313.15 K, x2 = 0.0505
  mass density: 864.72 ± 0.48 kg/m3
[1]; 313.15 K, x2 = 0.1012
  mass density: 870.23 ± 0.47 kg/m3
[1]; 313.15 K, x2 = 0.15
  mass density: 875.75 ± 0.46 kg/m3
[1]; 313.15 K, x2 = 0.2008
  mass density: 881.92 ± 0.45 kg/m3
[1]; 313.15 K, x2 = 0.2491
  mass density: 887.96 ± 0.44 kg/m3
[1]; 313.15 K, x2 = 0.3003
  mass density: 894.87 ± 0.43 kg/m3
[1]; 313.15 K, x2 = 0.3498
  mass density: 901.76 ± 0.42 kg/m3
[1]; 313.15 K, x2 = 0.401
  mass density: 909.43 ± 0.4 kg/m3
[1]; 313.15 K, x2 = 0.4509
  mass density: 917.26 ± 0.39 kg/m3
[1]; 313.15 K, x2 = 0.5008
  mass density: 925.59 ± 0.38 kg/m3
[1]; 313.15 K, x2 = 0.5507
  mass density: 934.32 ± 0.37 kg/m3
[1]; 313.15 K, x2 = 0.5998
  mass density: 943.46 ± 0.36 kg/m3
[1]; 313.15 K, x2 = 0.65
  mass density: 953.33 ± 0.35 kg/m3
[1]; 313.15 K, x2 = 0.6995
  mass density: 963.85 ± 0.33 kg/m3
[1]; 313.15 K, x2 = 0.7505
  mass density: 975.23 ± 0.32 kg/m3
[1]; 313.15 K, x2 = 0.7994
  mass density: 986.99 ± 0.3 kg/m3
[1]; 313.15 K, x2 = 0.8502
  mass density: 1000 ± 0.29 kg/m3
[1]; 313.15 K, x2 = 0.8976
  mass density: 1013.08 ± 0.29 kg/m3
[1]; 313.15 K, x2 = 0.9504
  mass density: 1028.72 ± 0.3 kg/m3

## CCOC(=O)OCC [diethyl carbonate] + Cc1ccc(C)c(C)c1
[1]; 298.15 K, x1 = 1
  mass density: 969.12 ± 0.21 kg/m3
[1]; 313.15 K, x1 = 1
  mass density: 952.15 ± 0.23 kg/m3
